Experimental data published in US9458110B2, “Phenylpyrazole derivatives as potent ROCK1 and ROCK2 inhibitors” (BRISTOL-MYERS SQUIBB COMPANY, priority 2013, dated 2016).
pIC50: −log10 of the molar value.

Tests used:
ROCK1 = ROCK1 (Homo sapiens (Human), UniProt Q13464); assay: ROCK assay (Caliper LABCHIP peptide phosphorylation), ROCK1; assay type: biochemical; details: 5 μM ATP, 1.5 μM peptide substrate;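 also: Read-out is separation of phosphorylated from unphosphorylated peptide, with kinase activity inhibition computed at every concentration of a dose-response series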
ROCK1, sequence (Q13464 whole entry, species assumed): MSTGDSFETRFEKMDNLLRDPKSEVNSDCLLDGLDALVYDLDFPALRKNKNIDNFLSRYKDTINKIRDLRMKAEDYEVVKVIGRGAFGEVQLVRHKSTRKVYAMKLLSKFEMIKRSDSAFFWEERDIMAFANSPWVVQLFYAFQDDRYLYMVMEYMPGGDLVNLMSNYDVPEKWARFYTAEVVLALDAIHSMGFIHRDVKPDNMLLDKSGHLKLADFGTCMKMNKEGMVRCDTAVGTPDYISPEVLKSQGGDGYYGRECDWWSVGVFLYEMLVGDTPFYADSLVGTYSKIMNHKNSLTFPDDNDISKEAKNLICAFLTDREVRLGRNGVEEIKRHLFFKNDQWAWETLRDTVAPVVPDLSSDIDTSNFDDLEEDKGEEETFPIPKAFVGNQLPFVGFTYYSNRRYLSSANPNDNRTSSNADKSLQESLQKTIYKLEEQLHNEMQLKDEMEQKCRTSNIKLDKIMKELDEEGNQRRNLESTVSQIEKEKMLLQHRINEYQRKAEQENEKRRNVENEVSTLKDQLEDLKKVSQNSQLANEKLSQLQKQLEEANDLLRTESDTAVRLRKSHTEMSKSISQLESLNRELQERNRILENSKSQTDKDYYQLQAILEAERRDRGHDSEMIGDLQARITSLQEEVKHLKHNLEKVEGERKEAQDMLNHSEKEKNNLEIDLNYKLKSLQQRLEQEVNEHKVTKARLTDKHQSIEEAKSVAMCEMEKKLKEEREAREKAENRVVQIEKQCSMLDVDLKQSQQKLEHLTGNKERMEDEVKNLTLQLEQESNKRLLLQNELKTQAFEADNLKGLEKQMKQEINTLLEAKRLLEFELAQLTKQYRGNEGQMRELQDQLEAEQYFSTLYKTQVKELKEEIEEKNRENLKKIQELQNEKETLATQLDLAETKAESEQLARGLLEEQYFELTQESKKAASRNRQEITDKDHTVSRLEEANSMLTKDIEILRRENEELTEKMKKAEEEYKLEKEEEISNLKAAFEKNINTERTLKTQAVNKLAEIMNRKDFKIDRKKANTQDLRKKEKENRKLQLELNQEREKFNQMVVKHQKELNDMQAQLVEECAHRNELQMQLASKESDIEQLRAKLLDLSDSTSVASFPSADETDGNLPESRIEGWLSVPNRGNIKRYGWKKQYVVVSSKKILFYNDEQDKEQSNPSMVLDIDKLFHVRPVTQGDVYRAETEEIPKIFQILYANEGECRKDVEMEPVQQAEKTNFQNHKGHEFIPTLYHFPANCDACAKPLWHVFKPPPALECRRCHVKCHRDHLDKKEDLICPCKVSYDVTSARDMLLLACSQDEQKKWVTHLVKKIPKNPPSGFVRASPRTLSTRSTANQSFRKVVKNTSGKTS

ROCK2 = ROCK2 (Homo sapiens (Human), UniProt O75116); assay: ROCK assay (Caliper LABCHIP peptide phosphorylation), ROCK2; assay type: biochemical; details: 5 μM ATP, 1.5 μM peptide substrate;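 also: reaction stopped with EDTA, then phosphorylated and unphosphorylated peptide resolved by microfluidic electrophoresis, kinase inhibition computed at each compound concentration in dose-response series, DMSO under 2%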
ROCK2, sequence (O75116 whole entry, species assumed): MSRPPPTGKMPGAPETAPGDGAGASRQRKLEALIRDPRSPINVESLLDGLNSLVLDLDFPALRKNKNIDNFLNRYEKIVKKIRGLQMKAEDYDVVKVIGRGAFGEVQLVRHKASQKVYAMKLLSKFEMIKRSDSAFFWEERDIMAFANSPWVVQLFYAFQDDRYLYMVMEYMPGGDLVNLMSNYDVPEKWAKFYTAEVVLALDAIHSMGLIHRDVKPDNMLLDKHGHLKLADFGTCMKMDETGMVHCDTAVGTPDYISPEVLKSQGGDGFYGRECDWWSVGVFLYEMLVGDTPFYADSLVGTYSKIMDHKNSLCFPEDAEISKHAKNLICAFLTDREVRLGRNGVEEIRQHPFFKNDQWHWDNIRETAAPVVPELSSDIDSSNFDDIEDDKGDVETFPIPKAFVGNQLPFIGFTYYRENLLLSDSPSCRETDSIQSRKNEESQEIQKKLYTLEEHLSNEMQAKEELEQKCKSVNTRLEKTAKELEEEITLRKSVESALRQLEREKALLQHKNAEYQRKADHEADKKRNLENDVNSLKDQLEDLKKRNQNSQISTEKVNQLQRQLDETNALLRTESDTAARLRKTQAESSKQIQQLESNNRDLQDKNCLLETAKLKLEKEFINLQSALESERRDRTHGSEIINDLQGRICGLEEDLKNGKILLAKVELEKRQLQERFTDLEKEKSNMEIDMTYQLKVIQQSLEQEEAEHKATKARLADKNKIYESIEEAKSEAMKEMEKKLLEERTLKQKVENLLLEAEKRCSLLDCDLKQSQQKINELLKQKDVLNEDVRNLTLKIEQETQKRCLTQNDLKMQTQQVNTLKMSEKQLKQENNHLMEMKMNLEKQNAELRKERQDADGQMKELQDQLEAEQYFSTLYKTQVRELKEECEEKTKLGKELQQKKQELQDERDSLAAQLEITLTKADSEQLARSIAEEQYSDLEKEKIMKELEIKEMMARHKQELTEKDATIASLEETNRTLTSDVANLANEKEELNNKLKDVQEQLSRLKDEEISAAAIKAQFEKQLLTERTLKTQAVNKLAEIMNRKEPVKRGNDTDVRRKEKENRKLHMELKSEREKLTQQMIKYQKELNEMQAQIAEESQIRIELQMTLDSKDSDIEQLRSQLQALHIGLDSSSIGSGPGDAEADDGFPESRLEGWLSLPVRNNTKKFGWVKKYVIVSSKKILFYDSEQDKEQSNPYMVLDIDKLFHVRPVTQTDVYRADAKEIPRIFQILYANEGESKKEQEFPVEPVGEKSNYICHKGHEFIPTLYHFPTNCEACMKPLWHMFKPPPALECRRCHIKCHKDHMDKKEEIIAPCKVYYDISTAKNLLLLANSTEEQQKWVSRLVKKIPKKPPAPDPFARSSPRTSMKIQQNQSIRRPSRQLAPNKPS

pIC50 (ROCK1)	pIC50 (ROCK2)	SMILES
8.10	8.58	COc1cc(C(=O)NCc2ccccc2F)ccc1-c1cn[nH]c1 [Example 25, N-(2-fluorobenzyl)-3-methoxy-4-(1H-pyrazol-4-yl)benzamide]
7.69	7.68	COc1cc(C(=O)NCc2ccccc2C(F)(F)F)ccc1-c1cn[nH]c1 [Example 26, 3-methoxy-4-(1H-pyrazol-4-yl)-N-(2-(trifluoromethyl)benzyl)benzamide]
5.77	7.39	COc1cc(C(=O)NCc2cccc(OC(F)(F)F)c2)ccc1-c1cn[nH]c1 [Example 28, 3-methoxy-4-(1H-pyrazol-4-yl)-N-(3-(trifluoro-methoxy)benzyl) benzamide]
8.24	8.60	COc1cc(C(=O)NCc2cccc(Cl)c2Cl)ccc1-c1cn[nH]c1 [Example 29, N-(2,3-dichlorobenzyl)-3-methoxy-4-(1H-pyrazol-4-yl)benzamide]
7.36	7.94	COc1cc(C(=O)NCc2cccc(C(F)(F)F)c2)ccc1-c1cn[nH]c1 [Example 32, 3-methoxy-4-(1H-pyrazol-4-yl)-N-(3-(trifluoro-methyl)benzyl) benzamide]
7.78	8.18	COc1cc(C(=O)NCCc2ccccc2Cl)ccc1-c1cn[nH]c1 [Example 35, N-(2-chloro-phenethyl)-3-methoxy-4-(1H-pyrazol-4-yl)benzamide]
5.61	5.85	COc1cc(C(=O)NCc2ccc(Cl)cc2S(=O)(=O)CC(C)C)ccc1-c1cn[nH]c1 [Example 37, N-(4-chloro-2-(isobutyl-sulfonyl)benzyl)-3-methoxy-4-(1H-pyrazol-4-yl)benzamide]
6.97	7.48	COc1cc(C(=O)NCc2ccc(Cl)c(C(F)(F)F)c2)ccc1-c1cn[nH]c1 [Example 39, N-(4-chloro-3-(trifluoromethyl)benzyl)-3-methoxy-4-(1H-pyrazol-4-yl)benzamide]
6.47	6.65	COc1cc(C(=O)N[C@@H](C)[C@H](O)c2ccccc2)ccc1-c1cn[nH]c1 [Example 40, N-((1R,2S)-1-hydroxy-1-phenylpropan-2-yl)-3-methoxy-4-(1H-pyrazol-4-yl)benzamide]
8.47	8.60	COc1cc(C(=O)NCc2ccc(F)cc2Cl)ccc1-c1cn[nH]c1 [Example 41, N-(2-chloro-4-fluorobenzyl)-3-methoxy-4-(1H-pyrazol-4-yl)benzamide]
7.58	7.96	COc1cc(C(=O)N[C@H](C)[C@@H](O)c2ccccc2)ccc1-c1cn[nH]c1 [Example 42, N-((1S,2R)-1-hydroxy-1-phenylpropan-2-yl)-3-methoxy-4-(1H-pyrazol-4-yl)benzamide]
7.02	7.28	COc1cc(C(=O)N[C@@H](C)c2ccccc2Cl)ccc1-c1cn[nH]c1 [Example 44, (S)-N-(1-(2-chlorophenyl)ethyl)-3-methoxy-4-(1H-pyrazol-4-yl)benzamide]
< 5.70	5.88	COc1cc(C(=O)NCc2ccc(Cl)cc2SCC(C)C)ccc1-c1cn[nH]c1 [Example 47, N-(4-chloro-2-(isobutylthio)benzyl)-3-methoxy-4-(1H-pyrazol-4-yl)benzamide]
6.18	5.88	COc1cc(C(=O)NCc2ccc(Oc3ccccc3)cc2Cl)ccc1-c1cn[nH]c1 [Example 48, N-(2-chloro-4-phenoxybenzyl)-3-methoxy-4-(1H-pyrazol-4-yl)benzamide]
7.84	8.61	COc1ccc(F)c(CNC(=O)c2ccc(-c3cn[nH]c3)c(OC)c2)c1 [Example 49, N-(2-fluoro-5-methoxybenzyl)-3-methoxy-4-(1H-pyrazol-4-yl)benzamide]
7.19	7.78	COc1cc(C(=O)NCc2ccc(F)c(OC)c2F)ccc1-c1cn[nH]c1 [Example 50, N-(2,4-difluoro-3-methoxybenzyl)-3-methoxy-4-(1H-pyrazol-4-yl)benzamide]
7.83	8.27	COc1cc(C(=O)NCc2c(F)ccc(OC)c2F)ccc1-c1cn[nH]c1 [Example 51, N-(2,6-difluoro-3-methoxybenzyl)-3-methoxy-4-(1H-pyrazol-4-yl)benzamide]
7.67	8.32	COc1cccc(CNC(=O)c2ccc(-c3cn[nH]c3)cc2OC)c1 [Example 54, 2-methoxy-N-(3-methoxybenzyl)-4-(1H-pyrazol-4-yl)benzamide]
< 5.70	5.34	COc1cccc([C@@H](C)NC(=O)c2ccc(-c3cn[nH]c3)cc2S(C)(=O)=O)c1 [Example 61, (R)-N-(1-(3-Methoxyphenyl)ethyl)-2-(methylsulfonyl)-4-(1H-pyrazol-4-yl)benzamide]
7.36	8.05	COc1cccc([C@@H](C)NC(=O)c2ccc(-c3cn[nH]c3)cc2F)c1 [Example 62, (R)-2-Fluoro-N-(1-(3-methoxyphenyl)ethyl)-4-(1H-pyrazol-4-yl)benzamide]
8.11	8.92	COc1cc(C(=O)NCc2cccc(C(=O)O)c2)ccc1-c1cn[nH]c1 [Example 64, 3-((3-Methoxy-4-(1H-pyrazol-4-yl)benzamido)methyl)benzoic acid]
7.19	7.63	COc1cc(C(=O)NCc2cccc(C(=O)N3CCCC3)c2)ccc1-c1cn[nH]c1 [Example 66, 3-methoxy-4-(1H-pyrazol-4-yl)-N-(3-(pyrrolidine-1-carbonyl)benzyl) benzamide]
7.73	8.28	COc1cc(C(=O)NCc2cc(F)ccc2F)ccc1-c1cn[nH]c1 [Example 69, N-(2,5-difluorobenzyl)-3-methoxy-4-(1H-pyrazol-4-yl)benzamide]
6.42	6.79	COc1cc(C(=O)N(C)CCc2ccccc2)ccc1-c1cn[nH]c1 [Example 70, 3-methoxy-N-methyl-N-phenethyl-4-(1H-pyrazol-4-yl)benzamide]
8.23	8.83	COc1cc(C(=O)N[C@H](C)c2ccccc2)ccc1-c1cn[nH]c1 [Example 72, (R)-3-methoxy-N-(1-phenylethyl)-4-(1H-pyrazol-4-yl)benzamide]

More lines, now with the values behind:

SMILES	pIC50 (ROCK1)	pIC50 (ROCK2)
COc1cc(C(=O)NCc2ccccc2)ccc1-c1cn[nH]c1 [Example 27, N-benzyl-3-methoxy-4-(1H-pyrazol-4-yl) benzamide]	7.89	8.59
COc1cc(C(=O)NC(C)(C)c2ccccc2)ccc1-c1cn[nH]c1 [Example 30, 3-methoxy-N-(2-phenylpropan-2-yl)-4-(1H-pyrazol-4-yl)benzamide]	6.67	6.89
COc1cc(C(=O)NCc2ccccc2O)ccc1-c1cn[nH]c1 [Example 31, N-(2-hydroxybenzyl)-3-methoxy-4-(1H-pyrazol-4-yl)benzamide]	8.04	8.25
COc1cc(C(=O)NCCc2ccccc2)ccc1-c1cn[nH]c1 [Example 36, 3-methoxy-N-phenethyl-4-(1H-pyrazol-4-yl)benzamide]	7.55	7.98
COc1cc(C(=O)NCc2ccc3c(c2)OCO3)ccc1-c1cn[nH]c1 [Example 38, N-(benzo[d] [1,3]dioxol-5-ylmethyl)-3-methoxy-4-(1H-pyrazol-4-yl)benzamide]	7.46	7.85
COc1cc(C(=O)N[C@H](C)c2ccccc2Cl)ccc1-c1cn[nH]c1 [Example 43, (R)-N-(1-(2-chlorophenyl)ethyl)-3-methoxy-4-(1H-pyrazol-4-yl) benzamide]	7.39	8.88
COc1cc(C(=O)NCc2ccc(Br)cc2Cl)ccc1-c1cn[nH]c1 [Example 45, N-(4-bromo-2-chlorobenzyl)-3-methoxy-4-(1H-pyrazol-4-yl)benzamide]	7.77	8.33
COc1cc(C(=O)NCc2ccc(OCC(C)C)cc2Cl)ccc1-c1cn[nH]c1 [Example 46, N-(2-chloro-4-isobutoxybenzyl)-3-methoxy-4-(1H-pyrazol-4-yl)benzamide]	5.73	6.10
COc1cc(C(=O)NCc2cc(F)cc(F)c2)ccc1-c1cn[nH]c1 [Example 52, N-(3,5-difluorobenzyl)-3-methoxy-4-(1H-pyrazol-4-yl)benzamide]	6.90	7.20
COc1cc(-c2cn[nH]c2)ccc1C(=O)NCc1ccccc1Cl [Example 53, N-(2-Chlorobenzyl)-2-methoxy-4-(1H-pyrazol-4-yl)benzamide]	7.95	8.21
COc1cccc(CNC(=O)c2ccc(-c3c[nH]nc3C)c(OC)c2)c1 [Example 56, 3-Methoxy-N-(3-methoxybenzyl)-4-(3-methyl-1H-pyrazol-4-yl)benzamide]	6.34	6.69
COc1cc(C(=O)NCc2ccccc2Cl)ccc1-c1c[nH]nc1C [Example 57, N-(2-Chlorobenzyl)-3-methoxy-4-(3-methyl-1H-pyrazol-4-yl)benzamide]	6.83	7.00
COc1cccc(CNC(=O)c2ccc(-c3cn[nH]c3)c(C)c2)c1 [Example 58, N-(3-Methoxybenzyl)-3-methyl-4-(1H-pyrazol-4-yl)benzamide]	7.77	8.64
COc1cccc(CNC(=O)c2ccc(-c3cn[nH]c3)c(F)c2)c1 [Example 59, 3-Fluoro-N-(3-methoxybenzyl)-4-(1H-pyrazol-4-yl)benzamide]	7.48	7.72
CN(C)CCOc1cc(C(=O)NCc2ccccc2Cl)ccc1-c1cn[nH]c1 [Example 63, N-(2-Chlorobenzyl)-3-(2-(dimethylamino)ethoxy)-4-(1H-pyrazol-4-yl)benzamide]	5.80	6.07
COc1cc(C(=O)N(C)Cc2ccccc2)ccc1-c1cn[nH]c1 [Example 71, N-benzyl-3-methoxy-N-methyl-4-(1H-pyrazol-4-yl)benzamide]	5.87	6.31
COc1cc(C(=O)N[C@H](C)c2ccc(F)cc2)ccc1-c1cn[nH]c1 [Example 73, (R)-N-(1-(4-fluorophenyl)ethyl)-3-methoxy-4-(1H-pyrazol-4-yl)benzamide]	8.04	8.57
